Reference: patent US20110117125A1, “COMPOSITIONS AND METHODS FOR THE DELIVERY OF NUCLEIC ACIDS” (TEKMIRA PHARMACEUTICALS CORPORATION, priority 2008, published 2011)

Tests used:
[1] = ODN 14 compared with ODN 1; cited from earlier work
[2] = system: Factor VII; assay: Factor VII knockdown in mice by FVII siRNA lipid particles; assay type: in vivo; conditions: 40/10/40/10 aminolipid/DSPC/Chol/PEG-S-DMG, IV, C57BL/6 mice, 24 hours post-injection
Description: Factor VII (FVII), a prominent protein in the coagulation cascade, is synthesized in the liver (hepatocytes) and secreted into the plasma. FVII levels in plasma can be determined by a simple, plate-based colorimetric assay. As such, FVII represents a convenient model for determining siRNA-mediated downregulation of hepatocyte-derived proteins, as well as monitoring plasma concentrations and tissue distribution of the nucleic acid lipid particles and siRNA.
FVII activity was evaluated in FVII siRNA-treated animals at 24 hours after intravenous (bolus) injection in C57BL/6 mice. FVII was measured using a commercially available kit (Biophen FVII Kit™; Aniara Corp., Mason, Ohio), following the manufacturer's instructions at a microplate scale. FVII reduction was determined against untreated control mice, and the results were expressed as % Residual FVII. […]
The MTD for these studies was set as the lowest dose causing >7% decrease in body weight and a>200-fold increase in alanine aminotransferase (ALT), a clinical chemistry marker with good specificity for liver damage in rodents. The ED50 was determined from FVII dose-activity curves.
The ability of various lipid formulations to knockdown Factor VII expression was determined in a liver model using Factor VII siRNA, in order to evaluate the impact of aminolipid linker chemistry. […]

Compound	immunostimulatory / biological activity [1]	improvement of dose (mg/kg) to achieve 50% Factor VII reduction versus ester linkage (DLinDAP lipid) [2]	improvement of dose (mg/kg) to achieve 50% Factor VII reduction versus ether linkage (DLinDMA lipid) [2]
5′-AACC GTT GAG GGG CAT-3′ (DNA AACCGTTGAGGGGCAT; DNA, backbone and methylation of C not given here) [ODN 14]	ODN 14 is a 15-mer oligonucleotide and ODN 1 is the same oligonucleotide having a thymidine added onto the 5′ end making ODN 1 into a 16-mer. No difference in biological activity between ODN 14 and ODN 1 has been detected and both exhibit similar immunostimulatory activity (Mui et al., 2001)	–	–
5′-TAACGTTGAGGGGCAT-3 (DNA, backbone and methylation of C not given here) [ODN 1]	ODN 14 is a 15-mer oligonucleotide and ODN 1 is the same oligonucleotide having a thymidine added onto the 5′ end making ODN 1 into a 16-mer. No difference in biological activity between ODN 14 and ODN 1 has been detected and both exhibit similar immunostimulatory activity (Mui et al., 2001)	–	–
CCCCC/C=C\C/C=C\CCCCCCCCC1(CCCCCCCC/C=C\C/C=C\CCCCC)OCC(CN(C)C)O1 (stereo not shown) [DLin-K-DMA, 2,2-Dilinoleyl-4-dimethylaminomethyl-[1,3]-dioxolane]	–	approximately 100 -fold	approximately 10 -fold
